Experimental data as given in ChEMBL document CHEMBL1159135, “Enzymatic fucosylations with purine-diphosphate-fucoses (PDP-Fucoses)” (Bioorg Med Chem Lett, 1996).

Columns and labels:
[1] = biological target: T1, 3-galactosyl-N-acetylglucosaminide 4-alpha-L-fucosyltransferase FUT3 (Homo sapiens) (UniProt P21217); assay: In vitro inhibition of Fucosyltransferase 3; set-up: concentration or dose not given beside the values; conditions: concentration not given here
T1 sequence (whole entry): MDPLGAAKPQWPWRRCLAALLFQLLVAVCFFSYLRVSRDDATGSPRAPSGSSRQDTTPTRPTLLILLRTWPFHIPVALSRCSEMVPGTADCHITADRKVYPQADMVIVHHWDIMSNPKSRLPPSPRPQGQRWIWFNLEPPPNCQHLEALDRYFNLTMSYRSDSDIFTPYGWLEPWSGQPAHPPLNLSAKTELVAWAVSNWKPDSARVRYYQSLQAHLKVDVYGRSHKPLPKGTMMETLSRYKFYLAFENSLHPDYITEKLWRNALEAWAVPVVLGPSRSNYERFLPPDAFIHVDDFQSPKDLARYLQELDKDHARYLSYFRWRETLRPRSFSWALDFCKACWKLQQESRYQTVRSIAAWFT

[2] = biological target: T2, 4-galactosyl-N-acetylglucosaminide 3-alpha-L-fucosyltransferase FUT6 (Homo sapiens) (UniProt P51993); assay: In vitro inhibition of Fucosyltransferase 6; set-up: concentration or dose not given beside the values; conditions: concentration not given here
T2 sequence (whole entry): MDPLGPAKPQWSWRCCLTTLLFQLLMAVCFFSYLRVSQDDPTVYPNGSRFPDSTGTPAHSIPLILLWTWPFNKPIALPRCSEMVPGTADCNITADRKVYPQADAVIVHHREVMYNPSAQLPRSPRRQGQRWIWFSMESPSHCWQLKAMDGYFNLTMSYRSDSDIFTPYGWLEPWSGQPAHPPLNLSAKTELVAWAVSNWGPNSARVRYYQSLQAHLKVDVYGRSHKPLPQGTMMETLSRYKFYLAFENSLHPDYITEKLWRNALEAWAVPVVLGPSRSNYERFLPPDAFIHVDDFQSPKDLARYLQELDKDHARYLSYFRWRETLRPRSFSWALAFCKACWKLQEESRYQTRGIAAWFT

inhibition [1] [%] | inhibition [2] [%] | Structure (SMILES)
96 | 83 | C[C@@H]1O[C@H](OP(=O)(O)OP(=O)(O)OC[C@H]2O[C@@H](n3cnc4c(O)nc(N)nc43)[C@H](O)[C@@H]2O)[C@H](O)[C@@H](O)[C@@H]1O
0 | 0 | C[C@@H]1O[C@H](OP(=O)(O)OP(=O)(O)OP(=O)(O)OC[C@H]2O[C@@H](n3cnc4c(O)nc(N)nc43)[C@H](O)[C@@H]2O)[C@H](O)[C@@H](O)[C@@H]1O
68 | 72 | C[C@@H]1O[C@H](OP(=O)(O)OP(=O)(O)OC[C@H]2O[C@@H](n3cnc4c(O)ncnc43)[C@H](O)[C@@H]2O)[C@@H](O)[C@@H](O)[C@H]1O
76 | 60 | C[C@@H]1O[C@H](OP(=O)(O)OP(=O)(O)OC[C@H]2O[C@@H](n3cnc4c(N)ncnc43)[C@H](O)[C@@H]2O)[C@@H](O)[C@@H](O)[C@H]1O
73 | 62 | C[C@@H]1O[C@H](OP(=O)(O)OP(=O)(O)OC[C@H]2O[C@@H](n3cnc4c(=O)[nH]c(=O)[nH]c43)[C@H](O)[C@@H]2O)[C@@H](O)[C@@H](O)[C@H]1O
